Assay results published in patent US20250064773A1, “TARGETING ERO1 ALPHA WITH AURONE DERIVATIVES” (West Virginia University Board of Governors on behalf of …, priority 2021, published 2025).

Tests used:
HCC4006 = test: MTT viability assay, HCC4006; format: cell-based; details: Homo sapiens, NSCLC (adenocarcinoma), read-out: IC50 Avg ± s.d. (n = 3), HCC4006
Excerpt: Cell Lines: PC-9 cell line used was obtained from Sigma Aldrich and grown in RPMI 1640 medium with 10% fetal bovine serum and 1% penicillin/streptomycin. HCC4006, U266, MM1.s, and Beas-2B cell lines were obtained from ATCC and cultured in either RPMI 1640 or DMEM with 10% fetal bovine serum and 1% penicillin/streptomycin. All cell lines were also checked for mycoplasma every six months and subjected to short tandem repeat (STR) analysis for cell line validation. CRISPR Cas9: CRISPR Guide RNA 2 targeting ERO1α and CRISPR Guide RNA 4 were purchased from Genscript in the pLentiCRISPR V2 plasmid containing puromycin/ampicillin selection marker. Lentivirus was made from HEK 293T cells by co-transfection with GuideRNA of interest, pVSVG, and pPAX2 plasmids. […] Plate was then read on the BioTek Cytation 5 at 530/590 nm. […] Plate was then read at 570 nm. Treated wells were all compared to DMSO control wells to calculate percent growth inhibition and the IC50 was calculated using GraphPad (log(inhibitor) vs growth inhibition). […] Images were then quantified using ImageJ. […] Cells were aliquoted at 1 million cells per PCR tube in PBS and heated in Bio-Rad T100 thermal cycler at indicated temperatures (RT, 46° C., 48° C., 50° C., 52° C., 54° C., 56°, 58° C., and 60° C.) for 3 minutes and aggregation temperature was determined by western blot analysis. […]

myeloma cells lines = test: MTT viability assay, myeloma cell lines; format: cell-based

## CN(C)c1ccc(/C=C2\Oc3cc(O)ccc3C2=O)cc1 [Compound T151742]
HCC4006
  IC50: 18.5 ± 14.7 µM
Myeloma cells lines
  IC50: 7 to 9 µM
